In patent US20060078573A1, “Methods of modifying crystal habit” (priority 2004, published 2006):

Columns and labels:
Assay type in all cases: physicochemical
[1] = BET surface area measurement (nitrogen adsorption at 77 K); conditions: nitrogen adsorbate, PSA:GF ratio based on mass charged to crystallizer
Procedure: A Quantachrome Autosorb-IC (Boynton Beach, Fla.) was used to measure surface areas of the samples at 77 K. A known amount of powder (typically 500 mg) was loaded into a Quantachrome powder cell and outgassed for about 1 hr. Nitrogen was used as the adsorbate, and the equations derived by Brunauer, Emmett, and Teller (BET) were used by the software provided with the instrument to calculate the specific surface areas.

[2] = Powder flow properties: bulk density, tapped density, compressibility (modified USP procedure); conditions: for Percent Compressibility: computed from bulk density and tapped density (equation 3)
Procedure: Bulk densities of selected samples were measured using a modified USP procedure. A mass of sample (M), typically 0.5 g, was passed through a No. 18 test sieve (ASTM USA Standard Test Sieve, Fischer Scientific) into a tared 10 mL graduated cylinder. The powder was carefully leveled and the unsettled apparent volume (Vo) was read to the nearest 0.05 mL. The bulk density (ρb) was then calculated using equation 1: [formula] Each bulk density measurement was performed in triplicate, and the average value was reported. Tapped densities of selected samples were also obtained using a modified USP procedure. After the bulk density had been determined from the procedure described above, the graduate cylinder was mechanically tapped by raising the cylinder and allowing it to drop under its own weight using an apparatus that provided a fixed drop height of 14±2 mm. The nominal tap rate was 60 drops per minute. The cylinder was initially tapped 500 times and the tapped volume (VT) was read to the nearest 0.05 mL. The procedure was then repeated, in increments of 500 taps, until the difference between succeeding measurements was less than 2%. The tapped density (ρt) was then calculated using equation 2: [formula] Each tapped density measurement was performed in triplicate, and the average values for each sample is reported. Powder compressibility was computed from the bulk density and tapped density using equation 3: [formula] Determination of Griseofulvin Content in the Powder Samples
Powder flow properties, as represented by the bulk density, tapped density, and percent compressibility, were determined for selected samples and are shown in Table 2.0, in which GF is griseofluvin and the PSA:GF ratio was based on the original mass charged to the crystallizer. Absent values from the table indicate inadequate sample volume for the measurement technique.

[3] = Short term stability study at ICH conditions, characterised by XRPD
Procedure: A short term stability study was conducted at two International Conference on Harmonization (ICH) stability conditions, i.e. 25° C./60% relative humidity and 40° C./75% relative humidity. A thin layer of powder was placed in a 20 mL capped glass scintillation vial, and the vials were placed in a sealed desicator that was set to either 25 or 40° C., and to the desired relative humidity over the appropriate saturated salt solution^32. Relative humidities of 60% and 75% were obtained using sodium bromide or sodium chloride, respectively. After initial storage (4 days), the samples were removed and characterized by XRPD. The samples were then returned to appropriate desicator and stored for another 19 days with the caps removed. Final sample characterization was by SEM and XRPD.

SMILES: COC1=CC(=O)C[C@@H](C)[C@]12Oc1c(Cl)c(OC)cc(OC)c1C2=O [Bulk GF, griseofulvin]
- BET-Surface Area [1]: 2.98 m^2/g
- Bulk Density ([2]; average of triplicate): 0.2 ± 0.02 g/mL
- Tapped Density ([2]; average of triplicate, tapped in increments of 500 taps): 0.4 ± 0.02 g/mL
- Percent Compressibility [2]: 49 +/− 3%
- Percent Compressibility ([2]; listed as bulk griseofulvin): 49±3%
- XRPD diffraction pattern after storage (phase change) ([3]; stored for 23 days at 25° C./60% RH): No new peaks
- XRPD diffraction pattern after storage (phase change) ([3]; stored for 23 days at 40° C./75% RH): No new peaks
